Data as given in patent publication US20040116420A1 (priority 2001, published 2004).

What was measured:
HSV-1 = test: Antiviral activity, HSV-1 in Vero cells, plaque method; assay type: cell-based; conditions: Human alphaherpesvirus 1, 20 hours, 90% inhibition of plaque formation
How it was run: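 This is a virus-yield read-out. The culture medium was frozen at −80° C and thawed, and the plaques it formed were counted. It came from Vero monolayers infected with 50,000 pfu HSV-1 and then exposed to the compound for 20 h at 37° C. EC90 is the concentration inhibiting 90% of plaque formation relative to the untreated infected control.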

Vero cells = test: Cytotoxicity, Vero cells, Alamar Blue; assay type: cell-based; conditions: 25 μM, 20 hours
How it was run: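 Living-cell ratio versus untreated control was read by Alamar Blue absorbance after about 6 h of dye incubation. Before that, Vero cells had received 25 μM test compound in 2% FBS-DMEM for 20 hours at 37 °C under 5% CO2.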

HSV-1 protease = target: T1, HSV-1 protease (Human herpesvirus 1, UniProt P10210); test: Enzymatic assay for HSV-1 protease (assembly) inhibitor, fluorescence polarization; assay type: biochemical; conditions: read-out: HSV-1 Enzyme inhibition IC50
T1 construct: 6xHis (N); made in house; host or cells: baculovirus expression system
How it was run: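 Fluorescence polarization read-out: after avidin stop, cleavage of a biotinylated DTAF-labelled release-site peptide by recombinant N-His6 HSV-1 protease was compared with no-inhibitor wells. Enzyme and compound were preincubated 30 min, then substrate reacted 60 min, all at room temperature, pH 7.4 citrate buffer with TCEP.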

T1 sequence (P10210 1-247): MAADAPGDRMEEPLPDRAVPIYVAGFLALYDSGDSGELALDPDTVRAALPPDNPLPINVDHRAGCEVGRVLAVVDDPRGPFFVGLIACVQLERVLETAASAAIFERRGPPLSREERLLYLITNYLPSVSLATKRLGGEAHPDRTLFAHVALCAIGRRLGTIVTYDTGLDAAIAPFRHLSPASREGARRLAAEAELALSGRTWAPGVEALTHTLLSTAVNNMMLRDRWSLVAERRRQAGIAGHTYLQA

| Structure (SMILES) | EC90 (HSV-1) [µM] | IC50 (HSV-1 protease) [µM] | Cell viability (% of control) (Vero cells) [%] |
| --- | --- | --- | --- |
| COc1ccc(C(=O)Nc2ccc3nc(NC(C)(C)C(=O)N(C)CCc4ccccn4)oc(=O)c3c2C)cc1 [Compound No.163, 4-Methoxy-N-(5-methyl-2-{1-methyl-1-[methyl-(2-pyridin-2-yl-ethyl)-carbamoyl]-ethylamino}-4-oxo-4H-benzo[d][1,3]oxazin-6-yl)-benzamide] | 10.7 | 1.3 | 66.0 |
| Cc1c(NC(=O)c2ccc([N+](=O)[O-])o2)ccc2nc(NC(C)(C)C(=O)N(C)CCc3ccccn3)oc(=O)c12 [Compound No.177, 5-Nitro-furan-2-carboxylic acid (5-methyl-2-{1-methyl-1-[methyl-(2-pyridin-2-yl-ethyl)-carbamoyl]-ethylamino}-4-oxo-4H-benzo[d][1,3]oxazin-6-yl)-amide] | > 12.5 | 6 | 38.0 |
| Cc1c(NC(=O)OC(C)(C)C)ccc2nc(N3Cc4ccccc4C[C@H]3C(=O)NCc3cccnc3)oc(=O)c12 [Compound No.95, (5-Methyl-4-oxo-2-{3S-[(pyridin-3-ylmethyl)-carbamoyl]-3,4-dihydro-1H-isoquinolin-2-yl}-4H-benzo[d][1,3]oxazin-6-yl)-carbamic acid tert-butyl ester] | 12.3 | 4.4 | 44.0 |
| Cc1c(NC(=O)CCCNC(=O)c2ccc(N(C)C)cc2)ccc2nc(NC(C)(C)C(=O)N(C)CCc3ccccn3)oc(=O)c12 [Compound No.224, 4-Dimethylamino-N-[3-(5-methyl-2-{1-methyl-1-[methyl-(2-pyridin-2-yl-ethyl)-carbamoyl]-ethylamino}-4-oxo-4H-benzo[d][1,3]oxazin-6-ylcarbamoyl)-propyl]-benzamide] | > 12.5 | 0.4 | 107.5 |
| Cc1c(NC(=O)OC(C)(C)C)ccc2nc(N3Cc4ccccc4C[C@H]3C(=O)NCc3ccncc3)oc(=O)c12 [Compound No.96, (5-Methyl-4-oxo-2-{3S-[(pyridin-4-ylmethyl)-carbamoyl]-3,4-dihydro-1H-isoquinolin-2-yl}-4H-benzo[d][1,3]oxazin-6-yl)-carbamic acid tert-butyl ester] | 11.2 | 5.5 | 55.4 |
| CCc1ccc(C(=O)Nc2ccc3nc(NC(C)(C)C(=O)N(C)CCc4ccccn4)oc(=O)c3c2C)cc1 [Compound No.187, 4-Ethyl-N-(5-methyl-2-{1-methyl-1-[methyl-(2-pyridin-2-yl-ethyl)-carbamoyl]-ethylamino}-4-oxo-4H-benzo[d][1,3]oxazin-6-yl)-benzamide] | 4.5 | 1.1 | 65.8 |
| Cc1c(NC(=O)OC(C)(C)C)ccc2nc(N3C[C@H](OCc4ccccc4)C[C@H]3C(=O)N(C)CCc3ccncc3)oc(=O)c12 [Compound No.116, (2-{4R-Benzyloxy-2S-[methyl-(2-pyridin-4-yl-ethyl)-carbamoyl]-pyrrolidin-1-yl}-5-methyl-4-oxo-4H-benzo[d][1,3]oxazin-6-yl)-carbamic acid tert-butyl ester] | 6.5 | > 10 | 68.2 |
| Cc1c(NC(=O)OC(C)(C)C)ccc2nc(N3C[C@H](OCc4ccccc4)C[C@H]3C(=O)NCc3cccnc3)oc(=O)c12 [Compound No.110, (2-{4R-Benzyloxy-2S-[(pyridin-3-ylmethyl)-carbamoyl]-pyrrolidin-1-yl}-5-methyl-4-oxo-4H-benzo[d][1,3]oxazin-6-yl)-carbamic acid tert-butyl ester] | 7.4 | 6.3 | 71.9 |
| Cc1ccc(C(=O)Nc2ccc3nc(NC(C)(C)C(=O)N(C)CCc4ccccn4)oc(=O)c3c2C)cc1 [Compound No.158, 4-Methyl-N-(5-methyl-2-{1-methyl-1-[methyl-(2-pyridin-2-yl-ethyl)-carbamoyl]-ethylamino}-4-oxo-4H-benzo[d][1,3]oxazin-6-yl)-benzamide] | 8.3 | 3.3 | 63.6 |

The next lines start with results.

| EC90 (HSV-1) [µM] | IC50 (HSV-1 protease) [µM] | Structure (SMILES) | Cell viability (% of control) (Vero cells) [%] |
| --- | --- | --- | --- |
| 6.6 | 1 | Cc1c(NC(=O)c2sccc2Cl)ccc2nc(NC(C)(C)C(=O)N(C)CCc3ccccn3)oc(=O)c12 [Compound No.179, 3-Chloro-thiophene-2-carboxylic acid (5-methyl-2-{1-methyl-1-[methyl-(2-pyridin-2-yl-ethyl)-carbamoyl]-ethylamino}-4-oxo-4H-benzo[d][1,3]oxazin-6-yl)-amide] | 61.7 |
| 4.6 | 14 | Cc1c(NC(=O)OC(C)(C)C)ccc2nc(N[C@H](C(=O)N(C)CCc3cccnc3)C(C)(C)C)oc(=O)c12 [Compound No.66, (2-{2,2-Dimethyl-1S-[methyl-(2-pyridin-3-yl-ethyl)-carbamoyl]-propylamino}-5-methyl-4-oxo-4H-benzo[d][1,3]oxazin-6-yl)-carbamic acid tert-butyl ester] | 81.5 |
| > 12.5 | 1.5 | Cc1c(NC(=O)OC(C)(C)C)ccc2nc(N(C)[C@@H](C)C(=O)NCCc3ccccn3)oc(=O)c12 [Compound No.74, (5-Methyl-2-{methyl-[1S-(2-pyridin-2-ylethylcarbamoyl)-ethyl]-amino}-4-oxo-4H-benzo[d][1,3]oxazin-6-yl)-carbamic acid tert-butyl ester] | 95.3 |
| 5.3 | 1.5 | Cc1c(NC(=O)OC(C)(C)C)ccc2nc(N[C@H](C(=O)N(C)CCc3cccnc3)C(C)C)oc(=O)c12 [Compound No.67, (5-Methyl-2-{2-methyl-1S-[methyl-(2-pyridin-3-yl-ethyl)-carbamoyl]-propylamino}-4-oxo-4H-benzo[d][1,3]oxazin-6-yl)-carbamic acid tert-butyl ester] | 96.5 |
| 21.5 | 5.8 | Cc1c(NC(=O)OC(C)(C)C)ccc2nc(N[C@@H](CC(C)C)C(=O)NCc3ccccn3)oc(=O)c12 [Compound No.36, (5-Methyl-2-{3-methyl-1S-[(pyridin-2-ylmethyl)-carbamoyl]-butylamino}-4-oxo-4H-benzo[d][1,3]oxazin-6-yl)-carbamic acid tert-butyl ester] | 110.0 |
| 10.7 | 2.7 | Cc1c(NC(=O)OC(C)(C)C)ccc2nc(N3C[C@H](OCc4ccccc4)C[C@H]3C(=O)NCCc3ccccn3)oc(=O)c12 [Compound No.112, {2-[4R-Benzyloxy-2S-(2-pyridin-2-ylethylcarbamoyl)-pyrrolidin-1-yl]-5-methyl-4-oxo-4H-benzo[d][1,3]oxazin-6-yl}-carbamic acid tert-butyl ester] | 84.2 |
| > 12.5 | 7.6 | Cc1c(NC(=O)OC(C)(C)C)ccc2nc(N3CCCC[C@H]3C(=O)N(C)CCc3ccccn3)oc(=O)c12 [Compound No.106, (5-Methyl-2-{2S-[methyl-(2-pyridin-2-yl-ethyl)-carbamoyl]-piperidin-1-yl}-4-oxo-4H-benzo[d][1,3]oxazin-6-yl)-carbamic acid tert-butyl ester] | 53.3 |
| 4.9 | 1.7 | Cc1c(NC(=O)OC(C)(C)C)ccc2nc(N[C@@H](CC(C)C)C(=O)N(C)CCc3ccccn3)oc(=O)c12 [Compound No.46, (5-Methyl-2-{3-methyl-1S-[methyl-(2-pyridin-2-yl-ethyl)-carbamoyl]-butylamino}-4-oxo-4H-benzo[d][1,3]oxazin-6-yl)-carbamic acid tert-butyl ester] | 80.1 |
| > 12.5 | 9.3 | Cc1oc(C(C)(C)C)cc1C(=O)Nc1ccc2nc(NC(C)(C)C(=O)N(C)CCc3ccccn3)oc(=O)c2c1C [Compound No.174, 5-tert-Butyl-2-methyl-furan-3-carboxylic acid (5-methyl-2-{1-methyl-1-[methyl-(2-pyridin-2-yl-ethyl)-carbamoyl]-ethylamino}-4-oxo-4H-benzo[d][1,3]oxazin-6-yl)-amide] | 30.1 |
| 6.6 | 1.7 | Cc1c(NC(=O)OC(C)(C)C)ccc2nc(N[C@H](C(=O)N(C)CCc3ccccn3)C(C)C)oc(=O)c12 [Compound No.45, (5-Methyl-2-{2-methyl-1S-[methyl-(2-pyridin-2-yl-ethyl)-carbamoyl]-propylamino}-4-oxo-4H-benzo[d][1,3]oxazin-6-yl)-carbamic acid tert-butyl ester] | 107.0 |
| 3.7 | 3.2 | Cc1c(NC(=O)OC(C)(C)C)ccc2nc(N[C@@H](CCc3ccccc3)C(=O)N(C)CCc3ccncc3)oc(=O)c12 [Compound No.56, (5-Methyl-2-{1S-[methyl-(2-pyridin-4-yl-ethyl)-carbamoyl]-3-phenyl-propylamino}-4-oxo-4H-benzo[d][1,3]oxazin-6-yl)-carbamic acid tert-butyl ester] | 77.9 |
| 5.8 | 6.1 | Cc1c(NC(=O)OC(C)(C)C)ccc2nc(N3Cc4ccccc4C[C@H]3C(=O)N(C)Cc3ccccn3)oc(=O)c12 [Compound No.98, {5-Methyl-2-[3S-(methyl-pyridin-2-yl-methylcarbamoyl)-3,4-dihydro-1H-isoquinolin-2-yl]-4-oxo-4H-benzo[d][1,3]oxazin-6-yl}-carbamic acid tert-butyl ester] | 46.2 |
